Assay results published in patent US4705784A, “Cephem compounds” (Sumitomo Pharmaceuticals Company, Limited, priority 1983, dated 1987).
In brackets after ≈: the same amount, converted by molar mass.

What was measured:
Proteus mirabilis = test: Antimicrobial activity test, Proteus mirabilis; type: cell-based
Enterobacter aerogenes = test: Antimicrobial activity test, Enterobacter aerogenes; type: cell-based; conditions: Klebsiella aerogenes
Serratia marcescens = test: Antimicrobial activity test, Serratia marcescens; type: cell-based
[1] = tested on: Staphylococcus epidermidis; test: Antimicrobial activity test, Staphylococcus epidermidis; type: cell-based
Escherichia coli = test: Antimicrobial activity test, Escherichia coli; type: cell-based
[2] = Oral dosage absorbability: urinary excretion rate after oral administration, mouse; type: in vivo; conditions: urine, dose: 50 mg/kg
Method: (§1) Results of oral dosage absorbability tests
(§2) Urinary excretion rate after oral
(§3) Test compd. administration (dose: 50 mg/kg)

[3] = Oral dosage absorbability: urinary excretion rate after oral administration, rat; type: in vivo; conditions: urine, dose: 50 mg/kg
Method: as §1, §2, §3

bacteria = conditions: cephem antibiotics in use for oral administration; cited from earlier work
[4] = tested on: β-lactamase producing resistant bacteria; conditions: cephem antibiotics in use for oral administration; cited from earlier work

MIC (Proteus mirabilis) [µg/mL]	MIC (Enterobacter aerogenes) [µg/mL]	MIC (Serratia marcescens) [µg/mL]	MIC [1] [µg/mL]	MIC (Escherichia coli) [µg/mL]	dose excreted [2] [%]	dose excreted [3] [%]	Compound	antimicrobial activity and width of antimicrobial spectrum (bacteria)	effect on β-lactamase producing resistant bacteria [4]
≤ 0.013	0.39 (≈ 0.883 µM)	1.56 (≈ 3.53 µM)	1.56 (≈ 3.53 µM)	0.05 (≈ 0.113 µM)			CO/N=C(\C(=O)NC1C(=O)N2C(C(=O)O)=C(COC(N)=O)CS[C@H]12)c1cscn1 (some centres unmarked) [Example 1, 7-[(Z)-2-Methoxyimino-2-(thiazol-4-yl)acetamido]-3-carbamoyloxymethyl-3-cephem-4-carboxylic acid]		
					64	30	CO/N=C(\C(=O)NC1C(=O)N2C(C(=O)OCOC(=O)C(C)(C)C)=C(COC(N)=O)CS[C@H]12)c1cscn1 (some centres unmarked) [Example 5, Pivaloyloxymethyl 7-[(Z)-2-methoxyimino-2-(thiazol-4-yl)acetamido]-3-carbamoyloxymethyl-3-cephem-4-carboxylate]		
0.05 (≈ 0.11 µM)	0.78 (≈ 1.71 µM)	3.13 (≈ 6.87 µM)	3.13 (≈ 6.87 µM)	0.2 (≈ 0.439 µM)			CCO/N=C(\C(=O)NC1C(=O)N2C(C(=O)O)=C(COC(N)=O)CSC12)c1cscn1 (centres unmarked) [Example 10]		
0.78 (≈ 1.82 µM)	1.56 (≈ 3.65 µM)	3.13 (≈ 7.32 µM)	1.56 (≈ 3.65 µM)	0.39 (≈ 0.912 µM)			NC(=O)OCC1=C(C(=O)O)N2C(=O)C(NC(=O)/C(=N\O)c3cscn3)[C@H]2SC1 (some centres unmarked) [Example 16, 7-[(Z)-2-hydroxyimino-2-(thiazol-4-yl)acetamido]-3-carbamoyloxymethyl-3-cephem-4-carboxylic acid]		

More lines, now with the values behind:

Compound	MIC (Proteus mirabilis) [µg/mL]	MIC (Enterobacter aerogenes) [µg/mL]	MIC (Serratia marcescens) [µg/mL]	MIC [1] [µg/mL]	MIC (Escherichia coli) [µg/mL]	dose excreted [2] [%]	dose excreted [3] [%]	antimicrobial activity and width of antimicrobial spectrum (bacteria)	effect on β-lactamase producing resistant bacteria [4]
N[C@@H](C(=O)N[C@@H]1C(=O)N2C(C(=O)O)=C(Cl)CS[C@H]12)c1ccccc1 [cefaclor]								slightly inferior	ineffective
N[C@@H](C(=O)N[C@@H]1C(=O)N2C(C(=O)O)=C(CSc3c[nH]nn3)CS[C@H]12)c1ccc(O)cc1 [cefatrizine]								slightly inferior	ineffective
CC1=C(C(=O)O)N2C(=O)[C@@H](NC(=O)[C@H](N)c3ccccc3)[C@H]2SC1 [cephalexin]								slightly inferior	ineffective
